# Values of other authors, collected in patent US20040110774A1, “Methods and formulations of using A1 adenosine receptor antagonists and P2x purinoceptor antagonists for the treatment and prevention of immune system disorders” (priority 2001, published 2004).
# Tests used:
# [1] = target: T1, A1 adenosine receptor (Homo sapiens, UniProt P30542); conditions: in tissues
# T1 sequence (P30542 1-326): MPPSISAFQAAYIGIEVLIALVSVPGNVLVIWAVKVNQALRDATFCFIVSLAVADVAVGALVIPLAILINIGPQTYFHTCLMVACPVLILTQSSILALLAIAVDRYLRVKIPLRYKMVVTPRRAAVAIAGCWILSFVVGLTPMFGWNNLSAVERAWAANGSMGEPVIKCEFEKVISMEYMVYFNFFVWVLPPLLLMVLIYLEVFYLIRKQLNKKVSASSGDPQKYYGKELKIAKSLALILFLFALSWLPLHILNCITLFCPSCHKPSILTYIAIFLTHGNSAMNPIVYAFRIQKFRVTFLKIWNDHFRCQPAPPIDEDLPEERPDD
# [2] = system: iNOS
# [3] = system: RAW 264.7 macrophages; conditions: LPS-stimulated RAW 264.7 macrophages
smiles,measurement,setting,value
"CCCn1c(=O)c2[nH]c(C3CCCC3)nc2n(CCC)c1=O [DPCPX, 1,3-dipropyl-8-cyclopentylxanthine]",nonspecific binding,[1],less than 1%
"Cc1nc(N=Nc2ccc(S(=O)(=O)O)cc2S(=O)(=O)O)c(COP(=O)(O)O)c(C=O)c1O [PPADS, pyridoxal-phosphate-6-azophenyl-2′,4′-disulphonic acid]",effect of LPS on the expression of iNOS,[2],prevent the effect of LPS on the expression of iNOS
"Nc1ncnc2c1ncn2[C@@H](C=O)O[C@@H](C=O)COP(=O)(O)OP(=O)(O)OP(=O)(O)O [o-ATP, Periodate oxidized adenosine 5′-triphosphate]",NF-kappa-B-like binding activity,[3],inhibit NF-kappa-B-like binding activity
same,effects of LPS on nitric oxide (NO) production,[3],inhibit the effects of LPS on nitric oxide (NO) production
same,expression of inducible nitric oxide synthase (iNOS),[3],inhibit the expression of inducible nitric oxide synthase (iNOS)
